Results taken from patent US20140343049A1, “DIHYDROFURAN DERIVATIVES AS INSECTICIDAL COMPOUNDS” (SYNGENTA PARTICIPATIONS AG, priority 2011, published 2014).

Key:
Type in all cases: in vivo
[1] = tested on: Heliothis virescens (tobacco budworm); test: Heliothis virescens egg test on artificial diet; settings: 96 h, 200 ppm (concentration in well 18 ppm), eggs 0-24 h old, 4 days, egg mortality, larval mortality, growth regulation
Protocol: Eggs (0-24 h old) were placed in 24-well microtiter plate on artificial diet and treated with test solutions at an application rate of 200 ppm (concentration in well 18 ppm) by pipetting. After an incubation period of 4 days, samples were checked for egg mortality, larval mortality, and growth regulation.

[2] = tested on: Spodoptera littoralis (Egyptian cotton leafworm); test: Spodoptera littoralis cotton leaf disc spray test; settings: foliar, 72 h, cotton leaf discs sprayed at 200 ppm, 5 L1 larvae, mortality, feeding behavior, growth regulation 3 days after treatment
From the text: Cotton leaf discs were placed on agar in a 24-well microtiter plate and sprayed with test solutions at an application rate of 200 ppm. After drying, the leaf discs were infested with 5 L1 larvae. The samples were checked for mortality, feeding behavior, and growth regulation 3 days after treatment (DAT).

[3] = tested on: Tetranychus urticae (two-spotted spider mite); test: Tetranychus urticae bean leaf disc spray test; settings: foliar, 192 h, bean leaf discs sprayed at 200 ppm, mixed ages, egg, larval and adult mortality 8 days later
From the text: Bean leaf discs on agar in 24-well microtiter plates were sprayed with test solutions at an application rate of 200 ppm. After drying, the leaf discs are infested with mite populations of mixed ages. 8 days later, discs are checked for egg mortality, larval mortality, and adult mortality. […]

[4] = tested on: Plutella xylostella (diamond back moth); test: Plutella xylostella L2 larvae test on artificial diet; settings: 144 h, 200 ppm (concentration in well 18 ppm), 6 days, larval mortality and growth regulation
Protocol: 24-well microtiter plate (MTP) with artificial diet was treated with test solutions at an application rate of 200 ppm (concentration in well 18 ppm) by pipetting. After drying, the MTPs were infested with L2 larvae (7-12 per well). After an incubation period of 6 days, samples were checked for larval mortality and growth regulation.

[5] = tested on: Diabrotica balteata (corn root worm); test: Diabrotica balteata L2 larvae test on artificial diet; settings: 120 h, 200 ppm (concentration in well 18 ppm), 5 days, larval mortality and growth regulation
Protocol: A 24-well microtiter plate (MTP) with artificial diet was treated with test solutions at an application rate of 200 ppm (concentration in well 18 ppm) by pipetting. After drying, the MTPs were infested with L2 larvae (6-10 per well). After an incubation period of 5 days, samples were checked for larval mortality and growth regulation.
A 24-well microtiter plate (MTP) with artificial diet was treated with test solutions at an application rate of 12.5 ppm (concentration in well 18 ppm) by pipetting. After drying, the MTP's were infested with L2 larvae (6-10 per well). After an incubation period of 5 days, samples were checked for larval mortality and growth regulation.

[6] = tested on: Thrips tabaci (onion thrips); test: Thrips tabaci sunflower leaf disc spray test; settings: foliar, 168 h, sunflower leaf discs sprayed at 200 ppm, mixed ages, mortality after 7 days
Protocol: Sunflower leaf discs were placed on agar in a 24-well microtiter plate and sprayed with test solutions at an application rate of 200 ppm. […] After drying, the leaf discs were infested with a thrip population of mixed ages. After an incubation period of 7 days, samples were checked for mortality.

Measured: pest or weed control at 200 ppm

Cc1cc(C2=CC(c3cc(Cl)cc(Cl)c3)(C(F)(F)F)OC2)ccc1C(=O)NCC(F)(F)F (centres unmarked) [Compound A3]
not listed: [6]
≥ 80%: all other assays above

C#CC1(NC(=O)c2ccc(C3=CC(c4cc(Cl)cc(Cl)c4)(C(F)(F)F)OC3)cc2C)CCCCC1 (centres unmarked) [Compound A30]
≥ 80%: [3] | [6] | [4] | [5]

Cc1cc(C2=CC(c3cc(Cl)cc(Cl)c3)(C(F)(F)F)OC2)ccc1C(=O)NCCC1OCCO1 (centres unmarked) [Compound A31]
not listed: [1]
≥ 80%: all other assays above

Cc1cc(C2=CC(c3cc(Cl)cc(Cl)c3)(C(F)(F)F)OC2)ccc1C(=O)NCc1cccnc1 (centres unmarked) [Compound A35]
not listed: [6]
≥ 80%: all other assays above

Cc1cc(C2=CC(c3cc(Cl)cc(Cl)c3)(C(F)(F)F)OC2)ccc1C(=O)NC(C)c1ccccc1 (centres unmarked) [Compound A38]
≥ 80%: [1] | [2] | [3] | [4]

CSCCNC(=O)c1ccc(C2=CC(c3cc(Cl)cc(Cl)c3)(C(F)(F)F)OC2)cc1C (centres unmarked) [Compound A49]
not listed: [6]
≥ 80%: all other assays above

Cc1cc(C2=CC(c3cc(Cl)cc(Cl)c3)(C(F)(F)F)OC2)ccc1C(=O)NCc1ccc(Cl)nc1 (centres unmarked) [Compound A52]
≥ 80%: [1] | [2] | [3] | [4]

Cc1cc(C2=CC(c3cc(Cl)cc(Cl)c3)(C(F)(F)F)OC2)ccc1C(=O)Nc1cccc2ncccc12 (centres unmarked) [Compound A57]
not listed: [6]
≥ 80%: all other assays above

Cc1cc(C2=CC(c3cc(Cl)cc(Cl)c3)(C(F)(F)F)OC2)ccc1C(=O)Nc1cccc(F)c1 (centres unmarked) [Compound A59]
≥ 80%: [1] | [2] | [6] | [4]

Cc1cc(C2=CC(c3cc(Cl)cc(Cl)c3)(C(F)(F)F)OC2)ccc1C(=O)NCC1CCS1 (centres unmarked) [Compound A80]
not listed: [6]
≥ 80%: all other assays above

Cc1cc(C2=CC(c3cc(Cl)cc(Cl)c3)(C(F)(F)F)OC2)ccc1C(=O)NCC1CCS1(=O)=O (centres unmarked) [Compound A81]
not listed: [6]
≥ 80%: all other assays above

CCNC(=O)c1ccc(C2=CC(c3cc(Cl)cc(Cl)c3)(C(F)(F)F)OC2)nc1C (centres unmarked) [Compound C2]
not listed: [1]
≥ 80%: all other assays above

COCC(C)NC(=O)c1ccc(C2=CC(c3cc(Cl)cc(Cl)c3)(C(F)(F)F)OC2)nc1C (centres unmarked) [Compound C4]
≥ 80%: [2] | [6]

CCC(C)NC(=O)c1ccc(C2=CC(c3cc(Cl)cc(Cl)c3)(C(F)(F)F)OC2)nc1C (centres unmarked) [Compound C7]
not listed: [3]
≥ 80%: all other assays above

Cc1nc(C2=CC(c3cc(Cl)cc(Cl)c3)(C(F)(F)F)OC2)ccc1C(=O)NCc1ccc(Cl)nc1 (centres unmarked) [Compound C14]
not listed: [6]
≥ 80%: all other assays above

Cc1nc(C2=CC(c3cc(Cl)cc(Cl)c3)(C(F)(F)F)OC2)ccc1C(=O)NC1(C)CSC1 (centres unmarked) [Compound C17]
not listed: [1]
≥ 80%: all other assays above

Cc1nc(C2=CC(c3cc(Cl)cc(Cl)c3)(C(F)(F)F)OC2)ccc1C(=O)NC1CSC1 (centres unmarked) [Compound C19]
not listed: [1]
≥ 80%: all other assays above

Cc1nc(C2=CC(c3cc(Cl)cc(Cl)c3)(C(F)(F)F)OC2)ccc1C(=O)NC1CC2CCC1C2 (centres unmarked) [Compound C20]
not listed: [3]
≥ 80%: all other assays above

Cc1nc(C2=CC(c3cc(Cl)cc(Cl)c3)(C(F)(F)F)OC2)ccc1C(=O)NC1CCC1 (centres unmarked) [Compound C21]
not listed: [3]
≥ 80%: all other assays above

Cc1cc(C2=CC(c3cc(Cl)cc(Cl)c3)(C(F)(F)F)OC2)ccc1C(=O)NC1CC2CCC1C2 (centres unmarked) [Compound D22]
≥ 80%: [6] | [4] | [5]

Cc1cc(C2=CC(c3cc(Cl)cc(Cl)c3)(C(F)(F)F)OC2=O)ccc1C(=O)NCC(=O)NCC(F)(F)F (centres unmarked) [Compound E5]
not listed: [6]
≥ 80%: all other assays above

Cc1cc(C2=CC(c3cc(Cl)cc(Cl)c3)(C(F)(F)F)OC2=O)ccc1C(=O)NC1CCC1 (centres unmarked) [Compound E18]
≥ 80%: [6]

O=C(NC1CS(=O)(=O)C1)c1ccc(C2=CC(c3cc(Cl)cc(Cl)c3)(C(F)(F)F)OC2)nc1Cl (centres unmarked) [Compound F2, 2-Chloro-6-[5-(3,5-dichloro-phenyl)-5-trifluoromethyl-2,5-dihydro-furan-3-yl]-N-(1,1-dioxo-1lambda*6*-thietan-3-yl)-nicotinamide]
≥ 80%: [1] | [2] | [3] | [4]
